The target of test [1] is Histone-lysine N-methyltransferase NSD2 (Homo sapiens, UniProt O96028). The format is biochemical.
The nature of test [2]: Counterscreen for […] of the human trace amine associated receptor 1 (TAAR1): Fluorescence-based cell-based high throughput dose response assay to identify nonselective Ga16 agonists. In kind it is functional. Background: The purpose of a counterscreen is to sort out artefacts and off-target activity.
Test [3] addresses T1, Trace amine-associated receptor 1 (Homo sapiens, UniProt Q96RJ0).
T1 sequence (Q96RJ0 whole entry): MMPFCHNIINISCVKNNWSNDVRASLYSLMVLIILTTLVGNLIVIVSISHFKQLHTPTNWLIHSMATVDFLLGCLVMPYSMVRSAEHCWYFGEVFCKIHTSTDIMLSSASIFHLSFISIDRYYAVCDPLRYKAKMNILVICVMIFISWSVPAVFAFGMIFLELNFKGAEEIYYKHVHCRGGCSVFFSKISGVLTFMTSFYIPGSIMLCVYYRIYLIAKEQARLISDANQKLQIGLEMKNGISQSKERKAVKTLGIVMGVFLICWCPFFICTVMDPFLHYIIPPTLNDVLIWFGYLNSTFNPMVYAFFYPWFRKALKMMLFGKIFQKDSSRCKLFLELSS
Kind of test: Fluorescence-based cell-based high throughput dose response assay to identify antagonists of the human trace amine associated receptor 1 (TAAR1). In kind it is functional.

The nature of test [4]: Counterscreen for antagonists of the human trace amine associated receptor 1 (hTAAR1): Fluorescence-based cell-based high throughput dose response assay to identify nonselective Ga16 antagonists. The format is functional.
In test [5] the target is T1, Trace amine-associated receptor 1. Kind of test: Counterscreen for antagonists of the human trace amine associated receptor 1 (hTAAR1): Fluorescence-based cell-based high throughput dose response assay to identify TAAR1 Agonists. The format is functional.
For test [6], the target named is Beta-lactamase (Salmonella choleraesuis (strain SC-B67), UniProt Q5J463). Kind of test: Epi-absorbance-based counterscreen for selective VIM-2 inhibitors: dose response biochemical high throughput screening assay to identify inhibitors of TEM-1 serine-beta-lactamase.
In test [7] the target is T2, Beta-lactamase (Pseudomonas aeruginosa, UniProt Q79MP6). Briefly: IMP-1 metallo-beta-lactamase inhibitors, dose response, selectivity assay for VIM-2 inhibitor project, biochemical, epi-absorbance (AID 1920).
In test [8] the target is T2, Beta-lactamase. Kind of test: […] counterscreen for selective VIM-2 inhibitors: dose response biochemical high throughput screening assay to identify inhibitors of IMP-1 metallo-beta-lactamase.
Test [9] is described as follows: Luminescence Cell-Based Dose Retest to Confirm Inhibitors of Cancer Stem Cells. [Related pubchem assays (depositor defined):AID2717, AID2721]. The format is functional. The following applies: Homo sapiens.
The nature of test [10]: cytotoxicity in NIH3T3 fibroblasts, dose response, cytotoxicity control for HSP40 inhibitor project, cell-based, CellTiter-Glo luminescence, cherry-pick, set 2 (AID 624265). The format is functional. In general terms: In ATP-based viability assays light output follows the ATP content of the culture.
Test [11] concerns Vero. Kind of test: Vero cell toxicity, dose response, cytotoxicity control, plate reader, cherry-pick samples (AID 687020). In kind it is functional, cell-based. The following applies: Chlorocebus sabaeus.
The test system of test [12] is A549. Kind of test: A549 cell toxicity, dose response, cytotoxicity control, plate reader, cherry-pick samples (AID 687028). The format is functional, cell-based. The settings on record: Homo sapiens.
Test [13] has as its target T3, Matrix metalloproteinase-14 (Homo sapiens, UniProt P50281). Kind of test: SAR confirmation of uHTS hits for a small molecule inhibitors of MT1-MMP activation in a fluorescence assay. The format is functional.
Test [14] has as its target T3, Matrix metalloproteinase-14. Kind of test: Dose Response confirmation of uHTS hits for a small molecule inhibitors of MT1-MMP activation in a fluorescence assay set 2. In kind it is functional.
Test [15] addresses 26S proteasome non-ATPase regulatory subunit 14 (Homo sapiens, UniProt O00487). Kind of test: inhibition of proteasome subunit RPN11 – biochemical, fluorescence polarization, uHTS hits, confirmation (AID 602368). The format is functional. For orientation: Fluorescence polarisation rises when a labelled molecule tumbles more slowly, as on binding a larger partner.
In test [16] the target is 72 kDa type IV collagenase (Homo sapiens, UniProt P08253). Briefly: Dose Response validation of uHTS RPN11 inhibitor hits using a MMP-2 Fluorescence assay. In kind it is functional.
Test [17] has as its target Prothrombin (Bos taurus, UniProt P00735). Briefly: thrombin inhibition, dose response, biochemical, fluorescence polarization, uHTS hits (AID 602369). In kind it is functional.
For test [18], the target named is Arf-GAP with SH3 domain, ANK repeat and PH domain-containing protein 1 (Homo sapiens, UniProt Q9ULH1). The format is functional.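 Further: biochemical fluorescence polarization dose–response screen measuring inhibition of ASAP1; ASAP1 GAP domain stimulating GTP hydrolysis by truncated human ARF1.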
The target in test [19] is Long-chain-fatty-acid--AMP ligase FadD28 (Mycobacterium tuberculosis, UniProt P9WQ59). Kind of test: Fluorescence polarization aasay to screen for inhibitors that compete for the binding of FadD28 to a bisubstrate Measured in Biochemical System Using Plate Reader - 2147-01_Inhibitor_Dose_CherryPick_Activity. The format is functional, Mycobacterium tuberculosis H37Rv.
Test [20] is described as follows: HEK293T cytotoxicity, dose response, cytotoxicity control for miR-122 modulator project, cell-based, inhibitor set, cherry-pick, set 2 (AID 720697). The format is functional.
Test [21] has as its target Beta-galactosidase (Escherichia coli, UniProt Q8VNN2). Briefly: Dose response counterscreen for EBI2 assay utilizing the enzyme, b-galactosidase. In kind it is functional.
The target of test [22] is Melanocortin receptor 4 (Homo sapiens, UniProt P32245). The format is functional, cell-based.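 Further: Cell-based assay with luminescence read-out, confirmatory dose-response testing for agonist activity of biased ligands at MC4R; human U2OS cells with tagged receptor and beta-arrestin; potency of agonists that increase receptor coupling to beta-arrestin.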
Test [23] has as its target T4, Sentrin-specific protease 1 (Homo sapiens, UniProt Q9P0U3). Kind of test: potency of human SENP1 inhibitors, dose response, biochemical, kinetic FRET (AID 651697). The settings on record: read-out: IC50_Mean. In kind it is functional.
For test [24], the target named is T4, Sentrin-specific protease 1. Kind of test: Dose response confirmation of small molecule inhibitors of the catalytic domain of the SUMO protease, SENP1 in a FRET assay. The following applies: read-out: IC50_Mean. The format is functional.
Test [25] addresses DNA repair and recombination protein RAD54-like (Homo sapiens, UniProt Q92698). Kind of test: inhibitors of human RAD54 branch migration, confirmation, biochemical, fluorescence, cherry-picked samples, dose series (AID 651657). In kind it is functional.
Test [26] concerns the target T5, Mitochondrial peptide methionine sulfoxide reductase (Bos taurus, UniProt P54149).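 Further: absorbance read-out, biochemical high-throughput dose-response screen for MsrA inhibitors, confirmatory; recombinant bovine MsrA coupled to E. coli TrxB with NADPH and selenocystamine; potency is for inhibitors of MsrA activity on DMSO substrate.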
T5 sequence (P54149 whole entry): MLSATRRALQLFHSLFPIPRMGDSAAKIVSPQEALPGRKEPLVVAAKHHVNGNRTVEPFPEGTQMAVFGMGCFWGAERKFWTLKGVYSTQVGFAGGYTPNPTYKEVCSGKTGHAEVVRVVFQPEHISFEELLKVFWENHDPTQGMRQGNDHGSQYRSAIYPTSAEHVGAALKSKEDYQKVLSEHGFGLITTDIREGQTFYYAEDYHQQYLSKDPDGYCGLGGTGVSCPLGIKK
In kind it is functional.

The target of test [27] is T6, Methionyl-tRNA synthetase, putative (Trypanosoma brucei brucei, UniProt Q38C91). In kind it is functional, Trypanosoma brucei brucei strain 927/4 GUTat10.1.
Test [28] can be described thus: Counterscreen for inhibitors of Trypanosoma brucei methionyl tRNA synthetase (MetRS): Luminescence-based cell-based high throughput dose response assay to identify compounds that are cytotoxic to Jurkat human T lymphocyte cells. In kind it is functional.
For test [29], the target named is T6, Methionyl-tRNA synthetase, putative. In kind it is functional, Trypanosoma brucei brucei strain 927/4 GUTat10.1. This is another data set of the same source.
Test [30] deals with Adenosylmethionine-8-amino-7-oxononanoate aminotransferase (Mycobacterium tuberculosis, UniProt P9WQ81). Kind of test: Mycobacterium tuberculosis BioA enzyme inhibitor Measured in Biochemical System Using Plate Reader - 2163-02_Inhibitor_Dose_CherryPick_Activity. The format is functional, Mycobacterium tuberculosis UT205.
For test [31], the target named is ADP-ribosylation factor GTPase-activating protein 1 (Rattus norvegicus, UniProt Q62848). Kind of test: Fluorescence polarization-based biochemical high throughput dose response screening assay to identify inhibitors of ADP-ribosylation factor GTPase activating protein 1 (ARFGAP1). In kind it is functional.
For test [32], the target named is Paired box protein Pax-8 (Homo sapiens, UniProt Q06710). Briefly: inhibitors of PAX8-driven TPO luciferase reporter, dose response, RMG-I cells, cherry-pick (AID 687027).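 Further: luciferase reporter driven by Pax8 target thyroperoxidase promoter measured by SteadyGlo luminescence.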 The format is functional, cell-based.
Test [33] in a line: inhibitors of CMV-promoter luciferase reporter, dose response, counter-screen for Pax8 inhibitor project, cell-based, HEK293, luminescence, dry powder (AID 743020). The format is functional.
A short description of test [34]: NIH:OVCAR-3 ovarian cancer cell cytotoxicity, dose response, PAX8 inhibitor project, plate reader, dry powder samples (AID 743044). In kind it is functional, cell-based.
Test [35] can be described thus: cytotoxicity in OVCAR8 ovarian cancer cells, dose response, PAX8 project, cell-based, plate reader, dry powder samples (AID 743197). In kind it is functional. The settings on record: OVCAR-8.
Test [36] is described as follows: A549 cell cytotoxicity, dose response, cytotoxicity control, plate reader, cherry-pick, antagonist series (AID 743412). In kind it is functional, cell-based.
Test [37] is described as follows: LGR2 antagonists, dose response, cell-based, HEK293, CRE-luciferase reporter, cherry pick (AID 743342). The format is functional.
Test [38] in a line: T. cruzi growth inhibition in host cells, dose response, cell-based, plate reader, dry powder, set 2 (AID 652275). The format is functional.

From ChEMBL document CHEMBL1201862, “PubChem BioAssay data set” (2004) come the findings set out here.

Each structure is given as a SMILES string. Active and inactive are the calls of the source.

T6 sequence (Q38C91 whole entry): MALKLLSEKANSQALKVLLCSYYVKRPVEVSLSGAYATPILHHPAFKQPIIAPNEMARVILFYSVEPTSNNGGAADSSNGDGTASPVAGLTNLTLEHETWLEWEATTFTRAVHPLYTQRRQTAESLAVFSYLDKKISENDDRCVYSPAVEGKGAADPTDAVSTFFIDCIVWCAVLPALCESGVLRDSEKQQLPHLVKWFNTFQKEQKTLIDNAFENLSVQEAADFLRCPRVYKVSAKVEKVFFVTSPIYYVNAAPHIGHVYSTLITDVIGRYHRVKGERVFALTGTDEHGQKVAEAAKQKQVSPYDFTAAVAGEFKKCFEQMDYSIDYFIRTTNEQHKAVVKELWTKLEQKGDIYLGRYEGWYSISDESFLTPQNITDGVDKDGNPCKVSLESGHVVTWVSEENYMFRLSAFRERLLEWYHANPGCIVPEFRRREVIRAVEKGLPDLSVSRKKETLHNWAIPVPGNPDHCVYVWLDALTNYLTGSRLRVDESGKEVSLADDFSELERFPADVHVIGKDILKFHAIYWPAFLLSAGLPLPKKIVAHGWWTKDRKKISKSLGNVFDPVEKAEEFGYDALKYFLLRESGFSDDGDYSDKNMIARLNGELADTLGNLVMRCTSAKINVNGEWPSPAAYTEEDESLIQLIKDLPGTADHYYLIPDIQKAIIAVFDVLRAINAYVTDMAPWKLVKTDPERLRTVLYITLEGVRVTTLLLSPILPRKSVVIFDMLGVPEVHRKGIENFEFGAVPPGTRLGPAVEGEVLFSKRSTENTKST
T4 sequence (Q9P0U3 whole entry, the tested form may be a part): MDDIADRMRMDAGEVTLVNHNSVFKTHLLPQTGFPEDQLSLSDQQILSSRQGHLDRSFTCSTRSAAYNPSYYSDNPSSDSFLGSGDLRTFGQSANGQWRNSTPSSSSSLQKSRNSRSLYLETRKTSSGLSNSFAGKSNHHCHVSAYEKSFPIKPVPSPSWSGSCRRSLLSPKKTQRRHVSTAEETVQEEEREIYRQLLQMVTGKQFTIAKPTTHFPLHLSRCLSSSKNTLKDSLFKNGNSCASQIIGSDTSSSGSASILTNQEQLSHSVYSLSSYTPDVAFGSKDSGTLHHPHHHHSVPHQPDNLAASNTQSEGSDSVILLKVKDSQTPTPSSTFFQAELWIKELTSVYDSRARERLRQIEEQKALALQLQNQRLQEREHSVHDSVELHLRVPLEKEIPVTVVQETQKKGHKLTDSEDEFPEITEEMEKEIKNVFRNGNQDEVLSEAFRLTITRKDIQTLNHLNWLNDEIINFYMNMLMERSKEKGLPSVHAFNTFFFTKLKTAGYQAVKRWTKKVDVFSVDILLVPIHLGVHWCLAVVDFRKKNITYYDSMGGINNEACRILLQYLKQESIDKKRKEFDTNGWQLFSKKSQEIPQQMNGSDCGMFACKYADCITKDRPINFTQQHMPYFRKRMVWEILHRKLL
T2 sequence (Q79MP6 whole entry): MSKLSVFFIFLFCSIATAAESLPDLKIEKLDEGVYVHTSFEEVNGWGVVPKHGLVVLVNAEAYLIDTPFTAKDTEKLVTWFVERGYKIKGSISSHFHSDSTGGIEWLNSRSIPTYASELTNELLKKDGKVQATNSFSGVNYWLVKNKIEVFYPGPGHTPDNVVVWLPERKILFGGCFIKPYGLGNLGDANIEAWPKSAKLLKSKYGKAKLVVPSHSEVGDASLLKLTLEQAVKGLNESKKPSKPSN
Sequence of Arf-GAP with SH3 domain, ANK repeat and PH domain-containing protein 1 (Q9ULH1 whole entry, the tested form may be a part): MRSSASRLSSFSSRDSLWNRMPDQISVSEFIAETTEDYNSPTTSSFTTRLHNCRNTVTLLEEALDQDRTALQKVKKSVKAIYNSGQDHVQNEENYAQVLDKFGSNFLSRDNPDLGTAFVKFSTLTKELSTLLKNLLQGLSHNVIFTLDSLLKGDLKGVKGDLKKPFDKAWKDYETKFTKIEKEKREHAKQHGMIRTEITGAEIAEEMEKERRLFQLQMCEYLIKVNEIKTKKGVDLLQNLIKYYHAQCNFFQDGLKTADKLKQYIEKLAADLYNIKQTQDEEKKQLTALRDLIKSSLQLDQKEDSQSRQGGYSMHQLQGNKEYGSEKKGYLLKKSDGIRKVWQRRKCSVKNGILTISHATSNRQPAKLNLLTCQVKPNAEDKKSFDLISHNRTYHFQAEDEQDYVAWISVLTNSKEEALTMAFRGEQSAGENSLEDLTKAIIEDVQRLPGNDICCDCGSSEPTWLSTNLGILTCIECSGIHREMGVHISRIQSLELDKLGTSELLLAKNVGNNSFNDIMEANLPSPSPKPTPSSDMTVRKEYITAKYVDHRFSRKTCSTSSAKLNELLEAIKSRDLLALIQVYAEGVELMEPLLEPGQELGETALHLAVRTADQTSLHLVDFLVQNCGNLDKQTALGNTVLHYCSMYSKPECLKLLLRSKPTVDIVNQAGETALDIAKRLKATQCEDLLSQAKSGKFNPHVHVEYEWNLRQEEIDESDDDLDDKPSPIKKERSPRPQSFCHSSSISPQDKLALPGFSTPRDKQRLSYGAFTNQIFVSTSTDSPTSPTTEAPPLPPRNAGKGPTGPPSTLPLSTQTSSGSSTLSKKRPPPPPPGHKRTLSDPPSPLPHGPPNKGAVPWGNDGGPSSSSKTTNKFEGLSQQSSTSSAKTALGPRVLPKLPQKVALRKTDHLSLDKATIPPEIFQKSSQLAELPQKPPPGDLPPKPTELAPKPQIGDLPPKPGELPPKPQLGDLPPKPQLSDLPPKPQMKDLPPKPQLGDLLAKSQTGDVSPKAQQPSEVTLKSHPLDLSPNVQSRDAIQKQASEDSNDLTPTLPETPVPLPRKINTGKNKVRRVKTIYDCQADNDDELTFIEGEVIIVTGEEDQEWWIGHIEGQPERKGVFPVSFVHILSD
Sequence of Histone-lysine N-methyltransferase NSD2 (O96028 whole entry): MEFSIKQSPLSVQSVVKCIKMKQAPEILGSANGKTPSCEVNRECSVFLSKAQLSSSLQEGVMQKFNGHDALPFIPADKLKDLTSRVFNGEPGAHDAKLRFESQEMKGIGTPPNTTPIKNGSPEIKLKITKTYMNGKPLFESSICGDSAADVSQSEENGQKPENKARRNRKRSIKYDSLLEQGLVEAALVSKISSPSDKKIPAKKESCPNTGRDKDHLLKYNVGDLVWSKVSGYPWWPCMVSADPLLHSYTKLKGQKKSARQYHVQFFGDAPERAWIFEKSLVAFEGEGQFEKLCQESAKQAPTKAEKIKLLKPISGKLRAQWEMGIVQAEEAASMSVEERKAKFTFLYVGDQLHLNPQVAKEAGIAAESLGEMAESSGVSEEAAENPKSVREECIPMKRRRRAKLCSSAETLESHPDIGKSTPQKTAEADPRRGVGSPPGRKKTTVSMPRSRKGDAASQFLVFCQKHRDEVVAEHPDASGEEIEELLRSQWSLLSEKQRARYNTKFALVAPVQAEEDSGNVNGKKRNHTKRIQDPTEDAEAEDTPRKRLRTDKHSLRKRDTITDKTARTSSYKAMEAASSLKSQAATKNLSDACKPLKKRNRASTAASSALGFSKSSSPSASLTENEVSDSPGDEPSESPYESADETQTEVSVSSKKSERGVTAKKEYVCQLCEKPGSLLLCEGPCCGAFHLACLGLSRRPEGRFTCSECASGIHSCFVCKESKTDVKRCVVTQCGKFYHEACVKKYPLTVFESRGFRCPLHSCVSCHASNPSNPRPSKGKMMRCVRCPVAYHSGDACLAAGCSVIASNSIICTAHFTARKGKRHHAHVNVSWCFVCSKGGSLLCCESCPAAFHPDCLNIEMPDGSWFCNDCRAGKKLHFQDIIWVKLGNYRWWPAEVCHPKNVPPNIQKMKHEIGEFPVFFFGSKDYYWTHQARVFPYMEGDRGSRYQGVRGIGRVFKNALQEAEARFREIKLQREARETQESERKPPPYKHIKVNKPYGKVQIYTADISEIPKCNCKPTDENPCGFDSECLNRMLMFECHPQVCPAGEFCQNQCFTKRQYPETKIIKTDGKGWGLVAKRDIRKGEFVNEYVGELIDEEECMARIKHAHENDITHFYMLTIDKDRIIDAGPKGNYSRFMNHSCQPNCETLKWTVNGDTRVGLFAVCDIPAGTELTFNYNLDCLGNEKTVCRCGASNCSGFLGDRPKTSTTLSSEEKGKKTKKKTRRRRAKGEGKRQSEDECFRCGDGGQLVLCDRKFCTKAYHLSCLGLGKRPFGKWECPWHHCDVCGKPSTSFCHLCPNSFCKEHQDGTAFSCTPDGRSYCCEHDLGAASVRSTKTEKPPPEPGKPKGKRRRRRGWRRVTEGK
Sequence of ADP-ribosylation factor GTPase-activating protein 1 (Q62848 whole entry): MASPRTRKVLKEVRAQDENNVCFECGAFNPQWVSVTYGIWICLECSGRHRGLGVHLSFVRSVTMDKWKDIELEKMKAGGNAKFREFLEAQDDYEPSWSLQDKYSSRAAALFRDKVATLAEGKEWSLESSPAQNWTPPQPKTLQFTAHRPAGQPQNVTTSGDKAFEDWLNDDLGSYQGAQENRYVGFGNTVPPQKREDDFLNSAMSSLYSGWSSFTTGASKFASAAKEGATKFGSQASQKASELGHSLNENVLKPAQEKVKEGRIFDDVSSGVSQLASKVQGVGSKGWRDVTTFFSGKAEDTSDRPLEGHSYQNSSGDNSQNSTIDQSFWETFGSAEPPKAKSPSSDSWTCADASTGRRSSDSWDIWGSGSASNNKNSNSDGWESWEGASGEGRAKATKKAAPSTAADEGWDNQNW
Sequence of Melanocortin receptor 4 (P32245 whole entry): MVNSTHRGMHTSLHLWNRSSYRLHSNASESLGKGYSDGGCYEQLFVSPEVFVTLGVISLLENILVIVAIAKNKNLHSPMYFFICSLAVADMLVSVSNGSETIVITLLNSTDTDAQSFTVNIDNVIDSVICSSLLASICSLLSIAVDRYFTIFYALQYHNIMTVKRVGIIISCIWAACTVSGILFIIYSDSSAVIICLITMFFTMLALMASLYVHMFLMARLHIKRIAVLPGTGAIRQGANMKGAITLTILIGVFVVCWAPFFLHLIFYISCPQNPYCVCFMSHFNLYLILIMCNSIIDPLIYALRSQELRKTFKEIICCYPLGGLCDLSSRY

Take `CCN=C(S)N(CCCN(CC)CC)Cc1cc2cc3c(cc2nc1O)OCO3`: the AC50 in test [1] is 15.7 µM (active).

Regarding `O=C(CCSCc1cccc(F)c1)NCCc1ccccc1`, the EC50 in test [2] and in [5] was > 29.9 µM (inactive) each time. Further, the IC50 is 7.43 µM (active) in test [3] and > 29.9 µM (inactive) in [4].

Regarding `Fc1ccccc1-c1nnc(S)n1Cc1ccccc1`, the IC50 in test [6], in [7] and in test [8] was > 59.6 µM (inactive) throughout.

Take `COc1ccc(-c2oc3ccccc3c2C#Cc2cncn2C)cc1`: in test [9], the AC50 was 2.05 µM (active). This compound also had an AbsAC35_uM in [10] of 54.48 µM.

Consider `Cc1cccc(C(=O)N2CCC(=O)N([C@H](COCc3ccc(Cl)cc3)Cc3ccccc3)CC2)c1`, for which the results for the AC50 in test [11] and in [12] were 33.6 µM (active) and 28.5 µM (active), respectively.

As to `CN1/C(=C\C(=O)c2cncc(Br)c2)C(C)(C)c2ccccc21`, the IC50 in test [13] is 66.5 µM (inactive); in test [14], 23.7 µM (inactive).

In the case of `N#Cc1ccc(-c2ccc(OCC(=O)NCC(=O)Nc3ccc(F)c(F)c3F)cc2)cc1`, the IC50 in test [15] is 12.7 µM (active); in [16] it was > 100 µM (inactive); in test [17] it was > 100 µM (inactive); in test [18] it was 26.1 µM (inactive).

Consider `COc1cccc(-n2nnnc2SCC(=O)Nc2cccc(C)n2)c1`, for which the concentration at half-maximal activity (AC50) in test [19] was 50.1 µM (active).

For `CC1CCN(CCc2nc3cc(NC(=O)Nc4ccccc4)ccc3n2C)CC1`, in test [20], the AC50 is 2.74 µM (active).

For `CCOC(=O)C1CCN(C2=NC(=O)/C(=C/c3ccc(Cl)cc3)S2)CC1`, in [21], the IC50 is > 80 µM (inactive).

Consider `COc1ccc(-c2ccc3c(c2)S(=O)(=O)c2cccc(C(=O)NCc4cc(C)oc4C(F)(F)F)c2C3=O)cc1OC`, for which the EC50 in test [22] was > 89.2 µM (inactive). Also, the IC50 in test [23] was 15.8 µM (active); in test [24], 13.3 µM (active).

As for `O=C(COc1ccc2c(c1)oc(=O)c1ccccc12)NCCCN1CCOCC1`, the AC50 in test [25] is 29.9 µM (active).

`C/C(=N\Nc1ccc(S(N)(=O)=O)cc1[N+](=O)[O-])c1ccc2c(c1)OCO2`: the IC50 in test [26] was 155 µM (inactive).

Consider `Cc1c(NS(=O)(=O)c2cccc(C(=O)NCc3cccc(Cl)c3)c2)c(=O)n(-c2ccccc2)n1C`, for which the IC50 in [27] was 119 µM (inactive); in [28], 83.3 µM (inactive); in [29], 21.7 µM (inactive).

Consider `COc1cccc(NC(=O)N2C[C@H](O)COC[C@@H]3O[C@@H](CC(=O)N(C)C)CC[C@H]32)c1`, for which, in test [30], the half-maximal activity concentration (AC50) is 0.596 µM (active).

As to `CC1CC(C)CN(C(=O)COC(=O)c2cn(C)c3ccccc23)C1` (stereo not drawn), the IC50 in [31] was 28.4 µM (inactive).

For the compound `C[C@H]1CN([C@@H](C)CO)S(=O)(=O)c2ccc(C#CC3CCCC3)cc2O[C@@H]1CN(C)Cc1cccnc1`, the AC50 in test [32] is 14.4 µM (active); in test [33], 39.4 µM (active); in [34], 37.1 µM (active); in [35] it was > 70 µM (inactive).

For `C[C@H](CO)N1C[C@H](C)[C@H](CN(C)C(=O)Nc2ccc3c(c2)OCO3)OCCCC[C@H](C)Oc2ccc(NC(=O)C3CCCCC3)cc2C1=O`, the AC50 in test [36] was 41 µM (active); in test [37] it was 2.21 µM (active).

`C[C@@H](CO)N1CC[C@H](CNCc2ccc(Oc3ccccc3)cc2)Oc2c(NC(=O)c3ccncc3)cccc2C1=O`: the AC50 in [38] was 0.0179 µM (active).

For orientation: AC50 means the midpoint of the concentration-response curve, whichever way the signal moves. In general, EC50 refers to the concentration needed to bring the measured effect to its halfway point.
